Experimental data as given in patent US3932664A, “Substituted phenoxyalkyl quaternary ammonium compounds as antiarrhythemic agents” (priority 1974, dated 1976).

System: ouabain-induced ventricular tachycardia in dogs
Experiment: conversion of ouabain-induced ventricular tachycardia to normal sinus rhythm in anesthetized dogs
Type: in vivo, dog
Details: intravenous; for mean duration of sinus rhythm: group of three dogs
Source text: Ventricular tachycardia is produced in dogs in a method similar to the method of Lucchesi and Hardman (J. Pharmacol. Exptl. Therap., 132, 372, 1961) by the administration of ouabain. In such operations, a dog is anesthetized by the intravenous administration of pentobarbital sodium at a dosage rate of 30 milligrams per kilogram. A femoral artery is cannulated with polyethylene tubing for measurements of blood pressure. A femoral vein is similarly cannulated for administration of ouabain and administration of the test compound. Hypodermic needle electrodes are employed for recording electrocardiograms. In such operations, ouabain is administered intravenously by infusion at a constant rate via the cannulated femoral vein. The infusion rate is 35 micrograms of ouabain per kilogram of animal body weight per hour. Within 1 to 1.5 hours following the start of the infusion, a ventricular tachycardia is seen to develop.
After ventricular tachycardia is observed, a test compound is administered intravenously by administration of varying amounts of a composition comprising 50 milligrams of the test compound as a sterile solution in 10 milliliters of water containing 0.9 percent sodium chloride. Each dose is administered slowly over a period of 15 to 30 seconds. The compound is administered at an initial dosage rate of 0.25 milligram of test compound per kilogram of animal body weight. Blood pressure and electrocardiogram are observed for 5 minutes after administration. When a complete conversion from the arrhythmic condition to normal sinus rhythm is not observed within the 5 minute period, a second dose of 0.50 milligram of the test compound per kilogram is administered by a similar procedure and blood pressure and heartbeat are similarly observed for 5 minutes. When complete conversion of the ventricular tachycardia to normal sinus rhythm is not observed, the dosage is increased two-fold every five minutes until complete conversion is obtained. The animal is then observed and the duration of the period of normal cardiac rhythm produced by administration of the test compound is recorded as the duration of antiarrhythmic activity. The termination of the period of normal activity is marked by the reappearance of ventricular tachycardia or fibrillation as indicated by the electrocardiogram observations. The antiarrhythmic dosage of test compound sufficient to bring about a complete conversion of the cuabain-induced tachycardia, and the duration of the period of normal cardiac activity are set out below.
The procedure of Example 26 is repeated, employing the compound of Example 1, [ 2-(4-amino-2,6-dibromophenoxy)-ethyl]-dimethyl(2-methylallyl)ammoniumchloride, as a test compound. In these operations two groups of three dogs each are administered the test compound intravenously at anti-arrhythmic dosage rates of 1 and 2 milligrams per kilogram after ectopic ventricular rhythms have been established by continuous infusion of cuabain.

C=C(C)C[N+](C)(C)CCOc1c(Br)cc(N)cc1Br.[Cl-] [Example 1, [2-(4-amino-2,6-dibromophenoxy)ethyl]-dimethyl(2-methylallyl)ammonium chloride]
minimal effective dose (Canis lupus familiaris, iv, dog, dose giving complete conversion of ouabain-induced tachycardia to normal sinus rhythm, read-out: Conversion Dose): 0.5 mg/kg | Duration (period of normal cardiac rhythm) (dog, at conversion dose 0.5 mg/kg): 15 min | mean duration of sinus rhythm (1 mg/kg): 12.7 min | mean duration of sinus rhythm (2 mg/kg): 26.5 min | conversion of the arrhythmias to sinus rhythm (two groups of three dogs, 1 and 2 mg/kg): Complete conversion of the arrhythmias to sinus rhythm is observed in all the dogs
